According to patent US9655887B2, “Pharmaceutical composition and the use thereof, and application regime of said pharmaceutical composition for on-demand contraception” (BAYER PHARMA AKTIENGESELLSCHAFT, priority 2013, dated 2017):
Marks after values point to notes of the source that are not given here.

Experiments:
[1] = target: EP2 subtype of the human PGE2 receptor (hEP2 receptor) (Homo sapiens, UniProt P43116); experiment: cAMP antagonism test, human prostaglandin E2 (subtype EP2) receptor signal; assay type: cell-based
Chain of EP2 subtype of the human PGE2 receptor (hEP2 receptor) (P43116 whole entry): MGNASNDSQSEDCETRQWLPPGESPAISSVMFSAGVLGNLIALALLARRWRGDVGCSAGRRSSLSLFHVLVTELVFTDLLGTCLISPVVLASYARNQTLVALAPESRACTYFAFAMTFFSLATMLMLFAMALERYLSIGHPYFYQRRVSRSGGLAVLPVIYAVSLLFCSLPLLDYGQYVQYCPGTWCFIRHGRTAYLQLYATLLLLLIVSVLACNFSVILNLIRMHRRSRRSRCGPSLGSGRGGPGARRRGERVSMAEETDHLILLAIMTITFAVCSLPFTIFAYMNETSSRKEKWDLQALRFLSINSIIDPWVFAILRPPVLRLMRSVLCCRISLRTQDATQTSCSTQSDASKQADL
Summary of the method: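 Cells (625000 cells/ml, mixed with cAMP-d2) were preincubated 20 min at RT with compound ([…]). They were then stimulated 60 min at RT with a 3× PGE2 solution (1.5 nM) in PBS-IBMX and lysed for 20 min. cAMP was read by HTRF as the 665/620 nm ratio ×10000, with antagonism seen as a rise in FRET signal.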

[2] = test system: fertility of the female rat; experiment: Single administration of EP2 receptor antagonists and COX inhibitors alone or in combination, fertility of the rat (implantation sites); assay type: in vivo, female Han Wistar rats
Protocol: 6. Effect of a Single Administration of EP2 Receptor Antagonists and COX Inhibitors Alone or in Combination on the Fertility of the Rat
In the experiments below, female Han Wistar rats having a weight of 200-270 g were used. The animals were kept in Makrolon cages in rooms with controlled lighting (12 hours of darkness; 12 hours of light), fed with a standard diet and provided with water ad libitum.
EP2 receptor antagonists were dissolved in benzyl benzoate/castor oil (1+4 v/v), and the dose was administered in a volume of 1 ml/kg of body weight s.c. Optionally, EP2 receptor antagonists were also administered orally in the same vehicle as the COX inhibitors (see below). […]
The COX inhibitors were suspended in a carrier liquid (85 mg of Myrj®53 polyoxyl(50)stearate; CAS No. 9004-99-3) in 100 ml of 0.9% w/v NaCl solution), and the dose corresponding to the treatment group was administered in a volume of 2 ml/kg of body weight.
Prior to the start of the experiment, two cycles were observed using vaginal swabs. Only animals having a regular 4-day cycle were used in the experiment. The animals were randomized to the treatment groups.
The animals were treated once in the proestrus, the day in the cycle when the LH peak occurs in the evening, with the test substances either alone or in combination. On the evening of the proestrus, the female animals mated with a male rat. Successive mating was confirmed by detection of vaginal sperms in the vaginal swab the next morning. The effect on fertility was determined 9-15 days after mating by the number of implantation sites of the animals. […]

[3] = Table 6.4, single administration in proestrus, E16 4 mg/animal, 17:00, data of n = 4 animals
[4] = Table 6.5, single administration in proestrus, E16 0.25 mg/animal, 17:00
[5] = Table 6.5, single administration in proestrus, E16 0.5 mg/animal, 17:00
[6] = Table 6.5, single administration in proestrus, E16 1 mg/animal, 17:00
[7] = Table 6.5, single administration in proestrus, E16 2 mg/animal, 17:00, data of n = 4 animals
[8] = Table 6.5, single administration in proestrus, E16 4 mg/animal, 17:00
[9] = proestrus, oral administration of EP2 receptor antagonist 2 mg/animal, divided to 16:00 and 17:00
[10] = single administration in proestrus, E16 1 mg/animal, 16:00
[11] = single administration in proestrus, E16 2 mg/animal, 16:00
[12] = single administration in proestrus, E16 4 mg/animal, 7:00
[13] = single administration in proestrus, E16 4 mg/animal, 13:00, data of n = 5 animals
[14] = single administration in proestrus, E16 4 mg/animal, 16:00
[15] = single administration in proestrus, E16 8 mg/animal, 16:00, data of n = 5 animals
[16] = single administration in proestrus, E161 2 mg/animal, 18:00
[17] = Table 6.4, single administration in proestrus, Meloxicam 0.25 mg/animal, 17:00, data of n = 5 animals
[18] = Table 6.4, single administration in proestrus, Meloxicam 0.5 mg/animal, 17:00
[19] = Table 6.4, single administration in proestrus, Meloxicam 1 mg/animal, 17:00
[20] = Table 6.4, single administration in proestrus, Meloxicam 2 mg/animal, 17:00, data of n = 5 animals
[21] = Table 6.5, single administration in proestrus, Meloxicam 2 mg/animal, 17:00, data of n = 5 animals

## COCCNC(=O)c1ccc2nn(CC3CCN(C(=O)c4ccc(Oc5ccc(C(F)(F)F)cc5)cc4)CC3)cc2c1C [Example E16, N-(2-methoxyethyl)-4-methyl-2-[(1-{4-[4-(trifluoromethyl)phenoxy]benzoyl}piperidin-4-yl)methyl]-2H-indazole-5-carboxamide]
[1]
  IC50: > 50 nM
[2]; [3]
  Absolute implantations number of 6 animals: 22**
  Implantations per animal (mean ± SD): 5.5 ± 5.4
[2]; [4]
  Absolute implantations number of 6 animals: 78
  Implantations per animal (mean ± SD): 13 ± 2.3
[2]; [5]
  Absolute implantations number of 6 animals: 60
  Implantations per animal (mean ± SD): 10 ± 2.8
[2]; [6]
  Absolute implantations number of 6 animals: 42
  Implantations per animal (mean ± SD): 7 ± 5.4
[2]; [7]
  Absolute implantations number of 6 animals: 30**
  Implantations per animal (mean ± SD): 7.5 ± 1.7
[2]; [8]
  Absolute implantations number of 6 animals: 32
  Implantations per animal (mean ± SD): 5.3 ± 4.5
[2]; [9]
  Absolute implantations number of 6 animals: 63
  Implantations per animal (mean ± SD): 10.5 ± 1.5
[2]; [10]
  Absolute implantations number of 6 animals: 62
  Implantations per animal (mean ± SD): 10.3 ± 2.5
[2]; [11]
  Absolute implantations number of 6 animals: 71
  Implantations per animal (mean ± SD): 11.8 ± 2.1
[2]; [12]
  Absolute implantations number of 6 animals: 54
  Implantations per animal (mean ± SD): 9.0 ± 3.4
[2]; [13]
  Absolute implantations number of 6 animals: 49*
  Implantations per animal (mean ± SD): 8.2 ± 3.1
[2]; [14]
  Absolute implantations number of 6 animals: 50
  Implantations per animal (mean ± SD): 8.3 ± 3.4
[2]; [15]
  Absolute implantations number of 6 animals: 43*
  Implantations per animal (mean ± SD): 8.6 ± 2.8

## COCCNC(=O)c1ccc2nn(CC3CCN(C(=O)c4ccc(Oc5ccc(C(F)(F)F)cn5)cc4)CC3)cc2c1C [Example E161, N-(2-methoxyethyl)-4-methyl-2-{[1-(4-{[5-(trifluoromethyl)pyridin-2-yl]oxy}benzoyl)piperidin-4-yl]methyl}-2H-indazole-5-carboxamide]
[1]
  IC50: > 50 nM
[2]; [9]
  Absolute implantations number of 6 animals: 69
  Implantations per animal (mean ± SD): 11.5 ± 3.1
[2]; [16]
  Absolute implantations number of 6 animals: 55
  Implantations per animal (mean ± SD): 9.0 ± 3.4

## COCCNC(=O)c1ccc2nn(CC3CCN(C(=O)c4ccc(-c5cnc(C(F)(F)F)nc5)cc4)CC3)cc2c1C [Example E195, N-(2-methoxyethyl)-4-methyl-2-[(1-{4-[2-(trifluoromethyl)pyrimidin-5-yl]benzoyl}-piperidin-4-yl)methyl]-2H-indazole-5-carboxamide]
[1]
  IC50: > 50 nM

## COCCNC(=O)c1ccc2nn(CC3CCN(C(=O)c4ccc(-c5ccc(Cl)cc5F)cc4)CC3)cc2c1C [Example E196, 2-({1-[(4′-chloro-2′-fluorobiphenyl-4-yl)carbonyl]piperidin-4-yl}methyl)-N-(2-methoxy-ethyl)-4-methyl-2H-indazole-5-carboxamide]
[1]
  IC50: > 50 nM

## COCCNC(=O)c1ccc2nn(CC3CCN(C(=O)c4ccc(-c5ccc(F)cc5Cl)cc4)CC3)cc2c1C [Example E197, 2-({1-[(2′-chloro-4′-fluorobiphenyl-4-yl)carbonyl]piperidin-4-yl}methyl)-N-(2-methoxy-ethyl)-4-methyl-2H-indazole-5-carboxamide]
[1]
  IC50: > 50 nM

## COCCNC(=O)c1ccc2nn(CC3CCN(C(=O)c4ccc(-c5cncc(Cl)c5)cc4)CC3)cc2c1C [Example E198, 2-({1-[4-(5-chloropyridin-3-yl)benzoyl]piperidin-4-yl}methyl)-N-(2-methoxyethyl)-4-methyl-2H-indazole-5-carboxamide]
[1]
  IC50: > 50 nM

## COCCNC(=O)c1ccc2nn(CC3CCN(C(=O)c4ccc(-c5cncc(F)c5)cc4)CC3)cc2c1C [Example E199, 2-({1-[4-(5-fluoropyridin-3-yl)benzoyl]piperidin-4-yl}methyl)-N-(2-methoxyethyl)-4-methyl-2H-indazole-5-carboxamide]
[1]
  IC50: > 50 nM

## COCCNC(=O)c1ccc2nn(CC3CCN(C(=O)c4ccc(-c5cncc(C(F)(F)F)c5)cc4)CC3)cc2c1C [Example E200, N-(2-methoxyethyl)-4-methyl-2-[(1-{4-[5-(trifluoromethyl)pyridin-3-yl]benzoyl}-piperidin-4-yl)methyl]-2H-indazole-5-carboxamide]
[1]
  IC50: > 50 nM

## COCCNC(=O)c1ccc2nn(CC3CCN(C(=O)c4ccc(-c5ccc(C(C)(C)O)cc5)cc4)CC3)cc2c1C [Example E201, 2-[(1-{[4′-(2-hydroxypropan-2-yl)biphenyl-4-yl]carbonyl}piperidin-4-yl)methyl]-N-(2-methoxyethyl)-4-methyl-2H-indazole-5-carboxamide]
[1]
  IC50: > 50 nM

## COCCNC(=O)c1ccc2nn(CC3CCN(C(=O)c4ccc(-c5cc(F)cc(F)c5)cc4)CC3)cc2c1C [Example E202, 2-({1-[(3′,5′-difluorobiphenyl-4-yl)carbonyl]piperidin-4-yl}methyl)-N-(2-methoxy-ethyl)-4-methyl-2H-indazole-5-carboxamide]
[1]
  IC50: > 50 nM

## COCCNC(=O)c1ccc2nn(CC3CCN(C(=O)c4ccc(-c5ccc(F)cc5)c(C)c4)CC3)cc2c1C [Example E203, 2-({1-[(4′-fluoro-2-methylbiphenyl-4-yl)carbonyl]piperidin-4-yl}methyl)-N-(2-methoxyethyl)-4-methyl-2H-indazole-5-carboxamide]
[1]
  IC50: > 50 nM

## COCCNC(=O)c1ccc2nn(CC3CCN(C(=O)c4ccc(-c5cc(F)cc(F)c5)c(C)c4)CC3)cc2c1C [Example E204, 2-({1-[(3′,5′-difluoro-2-methylbiphenyl-4-yl)carbonyl]piperidin-4-yl}methyl)-N-(2-methoxyethyl)-4-methyl-2H-indazole-5-carboxamide]
[1]
  IC50: > 50 nM

## COCCNC(=O)c1ccc2nn(CC3CCN(C(=O)c4ccc(-c5cccnc5)c(C)c4)CC3)cc2c1C [Example E205, N-(2-methoxyethyl)-4-methyl-2-({1-[3-methyl-4-(3-pyridyl)benzoyl]piperidin-4-yl}-methyl)-2H-indazole-5-carboxamide]
[1]
  IC50: > 50 nM

## COCCNC(=O)c1ccc2nn(CC3CCN(C(=O)c4ccc(-c5ccncc5)c(C)c4)CC3)cc2c1C [Example E206, N-(2-methoxyethyl)-4-methyl-2-({1-[3-methyl-4-(4-pyridyl)benzoyl]piperidin-4-yl}-methyl)-2H-indazole-5-carboxamide]
[1]
  IC50: > 50 nM

## COCCNC(=O)c1ccc2nn(CC3CCN(C(=O)c4ccc(-c5ccccc5)c(C)c4)CC3)cc2c1C [Example E207, N-(2-methoxyethyl)-4-methyl-2-({1-[(2-methylbiphenyl-4-yl)carbonyl]piperidin-4-yl}-methyl)-2H-indazole-5-carboxamide]
[1]
  IC50: > 50 nM

## Cc1cnc(NC(=O)C2=C(O)c3ccccc3S(=O)(=O)N2C)s1 [Meloxicam, meloxicam, reference compound]
[2]; [17]
  Absolute implantations number of 6 animals: 32*
  Implantations per animal (mean ± SD): 6.4 ± 5.9
[2]; [18]
  Absolute implantations number of 6 animals: 70
  Implantations per animal (mean ± SD): 11.7 ± 6.4
[2]; [19]
  Absolute implantations number of 6 animals: 66
  Implantations per animal (mean ± SD): 11 ± 5.5
[2]; [20]
  Absolute implantations number of 6 animals: 54*
  Implantations per animal (mean ± SD): 10.8 ± 4.4
[2]; [21]
  Absolute implantations number of 6 animals: 63*
  Implantations per animal (mean ± SD): 12.6 ± 3.4
